Data as given in patent US10570104B2, “Metabolically programmed metal chelators and uses thereof” (University of Florida Research Foundation, Incorporated, priority 2015, dated 2020).
Entries after “also recorded” stand apart in the source; their conditions may differ. Where two headings read alike, the source gives them in different places. Values belong to the compound of their own block, whether it stands above or below them.

Legend:
[1] = rats, sc, 300 mol/kg (so in the source); liver; 2 hours post drug; cited from earlier work
[2] = log Papp, octanol/TRIS buffer pH 7.4, shake flask direct method; format: physicochemical; details: not told
Source text: The redesign of 2 was predicated on the observation that both ligands 2 and 3 were orally active iron chelators in rodents and primates (Table 1), and that when the 4′-(OH) of 2 was methylated, providing (S)-4,5-dihydro-2-(2-hydroxy-4-methoxyphenyl)-4-methyl-4-thiazolecarboxylic acid^43 [(S)-4′-(CH3O)-DADFT, 4], there was a remarkable enhancement in both ICE and lipophilicity (log Papp). The log Papp data are expressed as the log of the fraction of the chelator seen in the octanol layer; measurements were done in TRIS buffer, pH 7.4, using a “shake flask” direct method.^49 The more negative the log Papp, the less chelator is in the octanol phase, the less lipophilic. Unfortunately, the increase in ICE of 4 came with a concomitant increase in toxicity.^50 Thus, the delicate balance between the increase in ICE and toxicity with enhanced lipophilicity needed to be understood and exploited.

[3] = po, cited from earlier work; for Rodent ICE (%): historical
[4] = po, 150 μmol/kg; historical; cited from earlier work
[5] = even when administered b.i.d.; cited from earlier work
[6] = Tissue distribution/metabolism of chelators in rats given sc (HPLC); format: in vivo, Sprague-Dawley rats
Experimental: Collection of Chelator Tissue Distribution Samples from Rodents. Male Sprague-Dawley rats (250-350 g) were given a single subcutaneously injection of the monosodium salts of 8 and 11 prepared as described above at a dose of […]. At times 0.5, 1, 2, 4 and 8 hours after dosing (n=3 rats per time point), the animals were euthanized by exposure to CO2 gas. Blood was obtained via cardiac puncture into vacutainers containing sodium citrate. The blood was centrifuged, and the plasma was separated for analysis. The liver, kidney, heart, and pancreas were removed from the animals and frozen.
Tissue Analytical Methods. Tissue samples of animals treated with 8 were prepared for HPLC analysis by homogenizing them in H2O at a ratio of 1:1 (w/v). Then, as a rinse, CH3OH at a ratio of 1:3 (w/v) was added, and the mixture was stored at −20° C. for 30 min. This homogenate was centrifuged. The supernatant was diluted with H2O, vortexed, and filtered with a 0.2 μm membrane. Analytical separation was performed on a Supelco Discovery RP Amide C16 HPLC system with UV detection at 310 nm as described previously.^44,75 Mobile phase and chromatographic conditions were as follows: solvent A, 5% CH3CN/95% buffer (25 mM KH2PO4+2.5 mM 1-octanesulfonic acid, pH 3.0); solvent B, 60% CH3CN/40% buffer.
Tissue samples of animals treated with 11 were prepared for HPLC analysis by homogenizing them in 0.5 N HClO4 at a ratio of 1:3 (w/v). Then, as a rinse, CH3OH at a ratio of 1:3 (w/v) was added, and the mixture was stored at −20° C. for 30 min. This homogenate was centrifuged. The supernatant was diluted with 95% buffer (25 mM KH2PO4, pH 3.0)/5% CH3CN, vortexed, and filtered with a 0.2 μm membrane. Analytical separation was performed on a Supelco Ascentis Express RP-Amide HPLC system with UV detection at 310 nm as described previously. Mobile phase and chromatographic conditions were as for 8.
Ligand concentrations were calculated from the peak area fitted to calibration curves by nonweighted least-squares linear regression with Shimadzu Class-VP 7.4 software.

[7] = Chelator-induced iron clearance (ICE) in iron-overloaded Cebus apella primates; format: in vivo, Cebus apella monkeys; details: 75 μmol/kg, monosodium salt
Experimental: Iron Loading of Cebus apella Monkeys. The monkeys (3.5-6.5 kg) were iron overloaded with intravenous iron dextran as specified in earlier publications to provide about 500 mg of iron per kg of body weight; the serum transferrin iron saturation rose to between 70 and 80%.^38,40 At least 20 half-lives, 60 days, elapsed before any of the animals were used in experiments evaluating iron-chelating agents.
Primate Fecal and Urine Samples. Fecal and urine samples were collected at 24 hours intervals and processed as described previously^38,40,74 Briefly, the collections began 4 days prior to the administration of the test drug and continued for an additional 5 days after the drug was given. Iron concentrations were determined by flame absorption spectroscopy as presented in other publications.^38′^40
Drug Preparation and Administration.
Calculation of Chelator Iron Clearing Efficiency (ICE).

[8] = for Rat ICE (%): 300 μmol/kg, monosodium salt
[9] = Tissue distribution/metabolism of chelators in rats given sc (HPLC); format: in vivo, Sprague-Dawley rats; details: sc 7, HPLC of tissues
[10] = 10-day toxicity trial of (S)-4′-(HO)-DADFT-HXA (11) in rats
[11] = treated rats, one day post drug, 384 μmol/kg/day po x 10 days

Compound: COc1ccc(C2=N[C@@](C)(C(=O)O)CS2)c(O)c1 [Compound 4, (S)-4,5-dihydro-2-(2-hydroxy-4-methoxyphenyl)-4-methyl-4-thiazolecarboxylic acid]
proportion of administered compound cleaved to its hydroxy metabolite (2 or 3) [1]: about 30%
Log Papp [2]: −0.70
Rodent ICE (%) ([3]; 300 μmol/kg): 6.6 ± 2.8%
Primate ICE (%) [4]: 24.4 ± 10.8%

Compound: C[C@]1(C(=O)O)CSC(c2ccc(OCCOCC(=O)O)cc2O)=N1 [Compound 9, (S)-4,5-dihydro-2-[2-hydroxy-4-(4-carboxy-3-oxabutyloxy)phenyl]-4-methyl-4-thiazolecarboxylic acid]
share of drug (parent+metabolite) ([6]; sc 8, 300 μmol/kg, liver, 1 hour): 59%
detection in liver ([6]; sc 8, 300 μmol/kg, liver, 8 hours): no metabolite 9 remains
share of drug (parent+metabolite) ([6]; sc 8, 300 μmol/kg, plasma, 2 hour post dosing): 88%
detection in plasma ([6]; sc 8, 300 μmol/kg, plasma, 8 hour): Neither the parent 8 nor the metabolite 9 was found at the 8 hour time point
Cebus ICE (%) ([7]; po): 1.7±1.4%
Cebus ICE (%) ([7]; sc): 17.4±9.7%
Log Papp [2]: −1.63
Rat ICE (%) ([8]; po): 6.2 ± 1.7%
Rat ICE (%) ([8]; sc): 11.3 ± 3.4%
metabolism of 7 to 8 and 9 in tissues [9]: not detected

Compound: C[C@]1(C(=O)O)CSC(c2ccc(OCCCCCCO)cc2O)=N1 [Compound 11, (S)-4,5-dihydro-2-[2-hydroxy-4-(6-hydroxyhexyloxy)phenyl]-4-methyl-4-thiazolecarboxylic acid]
conversion of 11 to 12-14 ([6]; sc 11, 300 μmol/kg): Significant conversion of 11→12-14 was found in all of the tissues examined; also recorded: quickly converted to the corresponding hydrophilic metabolites; also recorded: quickly converted to the corresponding hydrophilic acids 12, 13, and 14; also recorded: very quickly converted to the corresponding acid (12)
tissue concentration ([6]; sc 11, heart, 0.5 hour): 26 nmol/g wet weight
detection in kidney ([6]; sc 11, kidney): trace amounts 0.5 hour post drug
detection in liver ([6]; sc 11, liver): not found in the liver at any of the time points
tissue concentration ([6]; sc 11, pancreas, 0.5 hour): < 5 nmol/g wet weight
detection in plasma ([6]; sc 11, plasma): no longer detectable
share of total (parent+metabolites) ([6]; sc 11, plasma, 0.5 hour): 22%
Cebus ICE (%) ([7]; po): 21.9±3.6%
Log Papp [2]: 0.21
Rat ICE (%) ([8]; po): 9.9 ± 0.8%
oral absorption ([8]; rats, po): well absorbed
overt toxicity ([8]; rats, po 300 μmol/kg, single dose): did not present with any overt toxicity; also recorded: did not display any overt toxicity; also recorded: did not elicit any signs of overt toxicity
urinary Kim-1 excretion ([10]; baseline and not exceeded during the 10-day exposure, 384 μmol/kg/day po): < 20 ng/kg/24 hours
histopathology ([10]; extensive tissues (25/rat), 384 μmol/kg/day po x 10 days): did not identify any drug-related abnormalities
survival / overall toxicity ([10]; rats, po once daily for 10 days, 384 μmol/kg/day): All of the rats treated with 11 survived the exposure to the drug; also recorded: lack of toxicity
BUN [10, 11]: 20 ± 4 mg/dL
SCr [10, 11]: 0.5 ± 0.1 mg/dL

Further lines, with some results ahead:

Log Papp [2]: −1.10
Compound: COCCOCCOCCOc1ccc(C2=N[C@@](C)(C(=O)O)CS2)c(O)c1 [Compound 5, (S)-4,5-dihydro-2-[2-hydroxy-4-(3,6,9-trioxadecyloxy)phenyl]-4-methyl-4-thiazolecarboxylic acid]
proportion of administered compound cleaved to its hydroxy metabolite (2 or 3) [1]: 2%
renal toxicity [5]: no renal toxicity
Rodent ICE (%) ([3]; 300 μmol/kg): 5.5 ± 1.9%
Primate ICE (%) [4]: 25.4 ± 7.4%

Log Papp [2]: −1.22
Compound: COCCOCCOCCOc1cccc(C2=N[C@@](C)(C(=O)O)CS2)c1O [Compound 6, (S)-4,5-dihydro-2-[2-hydroxy-3-(3,6,9-trioxadecyloxy)phenyl]-4-methyl-4-thiazolecarboxylic acid]
proportion of administered compound cleaved to its hydroxy metabolite (2 or 3) [1]: 2.6%
renal toxicity [5]: no renal toxicity
ICE ([3]; 150 μmol/kg, compound 6 dose response): 18.7±2.9%
iron decorporated ([3]; 150 μmol/kg): 0.782 ± 0.121 mg/kg
Rodent ICE (%) ([3]; 300 μmol/kg, 48 hour sample collection period): 10.6±4.4%
quantity of iron excreted ([3]; 300 μmol/kg): 0.887 ± 0.367 mg/kg
Primate ICE (%) [4]: 23.0 ± 4.1%
